Experimental data taken from patent US20190322676A1, “CERAMIDE GALACTOSYLTRANSFERASE INHIBITORS FOR THE TREATMENT OF DISEASE” (BioMarin Pharmaceutical Inc., priority 2016, published 2019).
Structures can show the parent of a compound that is named as a salt.

Molecular target: T1, human CGT (ceramide galactosyltransferase), CHO/CGT lysate (Homo sapiens, UniProt Q16880)
T1 construct: Full-length human CGT cDNA was cloned into the BamH1/Xho1 site of pcDNA3.1 (+); expressed in transfected cells; host or cells: Chinese hamster ovary (CHO) cells; lysate prepared with M-PER
T1 sequence (Q16880 21-541): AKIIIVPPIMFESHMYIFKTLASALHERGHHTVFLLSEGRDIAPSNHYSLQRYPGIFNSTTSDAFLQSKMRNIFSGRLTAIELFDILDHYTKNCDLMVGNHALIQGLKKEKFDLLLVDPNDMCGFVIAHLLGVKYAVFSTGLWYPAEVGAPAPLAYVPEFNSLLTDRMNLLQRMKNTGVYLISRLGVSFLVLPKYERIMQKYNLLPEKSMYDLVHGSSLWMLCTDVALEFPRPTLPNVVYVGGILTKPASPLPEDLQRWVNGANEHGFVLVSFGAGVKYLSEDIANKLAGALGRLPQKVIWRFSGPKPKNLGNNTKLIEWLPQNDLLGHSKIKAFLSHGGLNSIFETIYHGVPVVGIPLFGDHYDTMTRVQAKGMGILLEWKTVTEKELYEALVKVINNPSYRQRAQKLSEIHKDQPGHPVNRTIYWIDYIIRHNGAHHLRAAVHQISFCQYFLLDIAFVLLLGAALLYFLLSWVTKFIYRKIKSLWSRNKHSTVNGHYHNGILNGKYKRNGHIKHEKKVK
Assay: CGT enzyme assay, RapidFire/MS/MS readout (Table 1 ranges with one asterisk *)
Assay type: biochemical
Settings: RapidFire method (range with one asterisk *)
Method in brief: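 Lysate (4 μg) of CHO cells transfected with full-length human CGT incubated 1 h at 37 °C with compound (0.001–50 μM) in pH 7.2 HEPES buffer with 10 μM C6-NBD-dihydro-ceramide, 17.5 μM UDP-galactose, Mg2+/Mn2+, CHAPS, BSA, 0.5% DMSO; ** set also contained 0.01% Tween 80. Product quantified by RapidFire/MS/MS, normalized to internal standard; IC50 from sigmoidal variable-slope fits.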

SMILES	IC50 [µM]
NC1CCN(C(=O)[C@H](NS(=O)(=O)c2ccc(OCC3CCCCC3)cc2)C(F)(F)c2ccc(OC3CCCCC3)cc2)CC1 [Compound 103-2, (S)—N-(3-(4-aminopiperidin-1-yl)-1-(4-(cyclohexyloxy)phenyl)-1,1-difluoro-3-oxopropan-2-yl)-4-(cyclohexylmethoxy)benzenesulfonamide]	30 to 100
NC1CC2CCC(C1)N2C(=O)[C@@H](NS(=O)(=O)c1ccc(OCC2CCCCC2)cc1)C(F)(F)c1ccc(-c2ccc(Cl)s2)cc1 (stereo partly drawn) [Compound 104-1, N-((2R)-3-(3-amino-8-azabicyclo[3.2.1]octan-8-yl)-1-(4-(5-chlorothiophen-2-yl)phenyl)-1,1-difluoro-3-oxopropan-2-yl)-4-(cyclohexylmethoxy) benzenesulfonamide]	1 to 10
NC1CC2CCC(C1)N2C(=O)[C@H](NS(=O)(=O)c1ccc(OCC2CCCCC2)cc1)C(F)(F)c1ccc(-c2ccc(Cl)s2)cc1 (stereo partly drawn) [Compound 104-2, N-((2S)-3-(3-amino-8-azabicyclo[3.2.1]octan-8-yl)-1-(4-(5-chlorothiophen-2-yl)phenyl)-1,1-difluoro-3-oxopropan-2-yl)-4-(cyclohexylmethoxy)benzenesulfonamide]	10 to 30
NC1CC2CCC(C1)N2C(=O)[C@@H](NS(=O)(=O)c1ccc(OCC2CCCCC2)cc1)C(F)(F)c1ccc(OC2CCCCC2)cc1 (stereo partly drawn) [Compound 105-1, N-((2R)-3-(3-amino-8-azabicyclo[3.2.1]octan-8-yl)-1-(4-(cyclohexyloxy)phenyl)-1,1-difluoro-3-oxopropan-2-yl)-4-(cyclohexylmethoxy) benzenesulfonamide]	< 1
NC1CC2CCC(C1)N2C(=O)[C@H](NS(=O)(=O)c1ccc(OCC2CCCCC2)cc1)C(F)(F)c1ccc(OC2CCCCC2)cc1 (stereo partly drawn) [Compound 105-2, N-((2S)-3-(3-amino-8-azabicyclo[3.2.1]octan-8-yl)-1-(4-(cyclohexyloxy)phenyl)-1,1-difluoro-3-oxopropan-2-yl)-4-(cyclohexylmethoxy)benzenesulfonamide]	10 to 30
CN([C@H](C(=O)N1C2CCC1CC(N)C2)C(F)(F)c1ccc(OCc2ccccc2)cc1)S(=O)(=O)c1ccc2cc(OC3CCCC3)ccc2c1 (stereo partly drawn) [Compound 106-1, N-((2R)-3-(3-amino-8-azabicyclo[3.2.1]octan-8-yl)-1-(4-(benzyloxy)phenyl)-1,1-difluoro-3-oxopropan-2-yl)-6-(cyclopentyloxy)-N-methylnaphthalene-2-sulfonamide]	1 to 10
CN([C@@H](C(=O)N1C2CCC1CC(N)C2)C(F)(F)c1ccc(OCc2ccccc2)cc1)S(=O)(=O)c1ccc2cc(OC3CCCC3)ccc2c1 (stereo partly drawn) [Compound 106-2, N-((2S)-3-(3-amino-8-azabicyclo[3.2.1]octan-8-yl)-1-(4-(benzyloxy)phenyl)-1,1-difluoro-3-oxopropan-2-yl)-6-(cyclopentyloxy)-N-methylnaphthalene-2-sulfonamide]	1 to 10
NC1CC2CCC(C1)N2C(=O)[C@@H](NS(=O)(=O)c1ccc2cc(OC3CCCC3)ccc2c1)C(F)(F)c1cccc(Oc2ccccc2)c1 (stereo partly drawn) [Compound 107-1, N-((2R)-3-(3-amino-8-azabicyclo[3.2.1]octan-8-yl)-1,1-difluoro-3-oxo-1-(3-phenoxyphenyl)propan-2-yl)-6-(cyclopentyloxy)naphthalene-2-sulfonamide]	< 1
NC1CC2CCC(C1)N2C(=O)[C@H](NS(=O)(=O)c1ccc2cc(OC3CCCC3)ccc2c1)C(F)(F)c1cccc(Oc2ccccc2)c1 (stereo partly drawn) [Compound 107-2, N-((2S)-3-(3-amino-8-azabicyclo[3.2.1]octan-8-yl)-1,1-difluoro-3-oxo-1-(3-phenoxyphenyl)propan-2-yl)-6-(cyclopentyloxy)naphthalene-2-sulfonamide]	1 to 10
NC1CCN(C(=O)[C@@H](NS(=O)(=O)c2ccc3cc(OC4CCCC4)ccc3c2)C(F)(F)c2cccc(Oc3ccccc3)c2)CC1 [Compound 108-1, (R)—N-(3-(4-aminopiperidin-1-yl)-1,1-difluoro-3-oxo-1-(3-phenoxyphenyl)propan-2-yl)-6-(cyclopentyloxy)naphthalene-2-sulfonamide]	< 1
NC1CCN(C(=O)[C@H](NS(=O)(=O)c2ccc3cc(OC4CCCC4)ccc3c2)C(F)(F)c2cccc(Oc3ccccc3)c2)CC1 [Compound 108-2, (S)—N-(3-(4-aminopiperidin-1-yl)-1,1-difluoro-3-oxo-1-(3-phenoxyphenyl)propan-2-yl)-6-(cyclopentyloxy)naphthalene-2-sulfonamide]	1 to 10
NC1CCN(C(=O)[C@@H](NS(=O)(=O)c2ccc(OCC3CCCCC3)cc2)C(F)(F)c2cccc(Oc3ccccc3)c2)CC1 [Compound 109-1, (R)—N-(3-(4-aminopiperidin-1-yl)-1,1-difluoro-3-oxo-1-(3-phenoxyphenyl)propan-2-yl)-4-(cyclohexylmethoxy)benzenesulfonamide trifluoroacetate]	1 to 10
NC1CCN(C(=O)[C@H](NS(=O)(=O)c2ccc(OCC3CCCCC3)cc2)C(F)(F)c2cccc(Oc3ccccc3)c2)CC1 [Compound 109-2, (S)—N-(3-(4-aminopiperidin-1-yl)-1,1-difluoro-3-oxo-1-(3-phenoxyphenyl)propan-2-yl)-4-(cyclohexylmethoxy) benzenesulfonamide trifluoroacetate]	1 to 10
CN([C@H](C(=O)N1C2CCC1CC(N)C2)C(F)(F)c1ccc(O)cc1)S(=O)(=O)c1ccc2cc(OC3CCCC3)ccc2c1 (stereo partly drawn) [Compound 110-1, N-((2R)-3-(3-amino-8-azabicyclo[3.2.1]octan-8-yl)-1,1-difluoro-1-(4-hydroxyphenyl)-3-oxopropan-2-yl)-6-(cyclopentyloxy)-N-methylnaphthalene-2-sulfonamide trifluoroacetate]	1 to 10
CN([C@@H](C(=O)N1C2CCC1CC(N)C2)C(F)(F)c1ccc(O)cc1)S(=O)(=O)c1ccc2cc(OC3CCCC3)ccc2c1 (stereo partly drawn) [Compound 110-2, N-((2S)-3-(3-amino-8-azabicyclo[3.2.1]octan-8-yl)-1,1-difluoro-1-(4-hydroxyphenyl)-3-oxopropan-2-yl)-6-(cyclopentyloxy)-N-methylnaphthalene-2-sulfonamide trifluoroacetate]	30 to 100
CN([C@H](C(=O)N1C2CCC1CC(N)C2)C(F)(F)c1cccc(Oc2ccccc2)c1)S(=O)(=O)c1ccc2cc(OC3CCCC3)ccc2c1 (stereo partly drawn) [Compound 111-1, N-((2R)-3-(3-amino-8-azabicyclo[3.2.1]octan-8-yl)-1,1-difluoro-3-oxo-1-(3-phenoxyphenyl)propan-2-yl)-6-(cyclopentyloxy)-N-methylnaphthalene-2-sulfonamide trifluoroacetate]	< 1
CN([C@@H](C(=O)N1C2CCC1CC(N)C2)C(F)(F)c1cccc(Oc2ccccc2)c1)S(=O)(=O)c1ccc2cc(OC3CCCC3)ccc2c1 (stereo partly drawn) [Compound 111-2, N-((2S)-3-(3-amino-8-azabicyclo[3.2.1]octan-8-yl)-1,1-difluoro-3-oxo-1-(3-phenoxyphenyl)propan-2-yl)-6-(cyclopentyloxy)-N-methylnaphthalene-2-sulfonamide trifluoroacetate]	10 to 30
NC1CCN(C(=O)[C@@H](NS(=O)(=O)c2ccc3cc(OC4CCCC4)ccc3c2)C(F)(F)c2ccc(-c3ccc(Cl)s3)cc2)CC1 [Compound 112-1, (R)—N-(3-(4-aminopiperidin-1-yl)-1-(4-(5-chlorothiophen-2-yl)phenyl)-1,1-difluoro-3-oxopropan-2-yl)-6-(cyclopentyloxy)naphthalene-2-sulfonamide trifluoroacetate]	< 1
